From publication PMC7991740, “Introduction of Non-natural Amino Acids Into T-Cell Epitopes to Mitigate Peptide-Specific T-Cell Responses” (Frontiers in Immunology, 2021) come the findings set out here.

Holding throughout (assay): biochemical
Holding throughout (assay type): binding

The target in one assay is T1, HLA-DRB5*01:01 (Homo sapiens, UniProt P01903+Q30154).
T1 construct: Human leukocyte antigen-DR molecules were immunopurified from homozygous EBV B lymphoblastoid cells; endogenous in cells

Another assay concerns the target HLA-DRB1*11:01 (Homo sapiens, UniProt P01903+P01911, A100R/A169T/A87E/I96F/K41T/L162R/M171V/P40S/Q125H/Q178H/Q39Y/Q99D/R42S/S66Y/T262R/V115G/W38E).
The next assay deals with T2, HLA-DRB1*01:01 (Homo sapiens, UniProt P01903+P01911, A100R/D57E/F55L/F60I/F76Y/I96L/L162R/M171V/P40L/Q125E/R42F/V115G/Y59C).
T2 construct: Human leukocyte antigen-DR molecules were immunopurified from homozygous EBV B lymphoblastoid cells; endogenous in cells

Another assay concerns the target T3, HLA-DRB1*04:01 (Homo sapiens, UniProt P01903+P01911, A100K/A169T/F76Y/I96L/K127E/L162R/M171V/N62H/P40V/Q125Y/R42H/S133A/S149N/S66Y/V115G/V209L/W38E).
T3 construct: Human leukocyte antigen-DR molecules were immunopurified from homozygous EBV B lymphoblastoid cells; endogenous in cells

The target in a further assay is HLA-DRB1*07:01 (Homo sapiens, UniProt P01903+P01911, A100R/A102G/A103Q/D57E/D86V/E43K/F76Y/K127E/L162R/M171V/P40G/Q125H/Q99D/R33Q/R42Y/R54Q/S133A/S66F/T210M/V115G/Y107V/Y59L/Y89S).
Setting [1] is: […], mean of at least two independent experiments, read-out: IC50 DRB5*0101.
Setting [2] is: […], mean of at least two independent experiments, read-out: IC50 DRB1*1101 (converted).
Setting [3] is: […], mean of at least two independent experiments, read-out: IC50 DRB1*0101.
[4] abbreviates: […], mean of at least two independent experiments, read-out: IC50 DRB1*0401.
Setting [5] is: […], mean of at least two independent experiments, read-out: IC50 DRB1*0701 (converted).

The structures appear in SMILES notation. Like-named read-outs stand apart in the source and are kept apart here. *1 amine or outer side, *2 acyl side, *3 side chain or, on linkers, in order; H or OH if unused. Where a SMILES comes first, the peptide text is derived from it. [ ]: non-standard residue; d: D form. X1 = NCCCC[C@@H](C(=O)[*:2])N(C[C@@H]1CCCN1)[*:1]

HLA-DRB1*11:01, sequence (P01903 26-254 limits assumed, other chains not shown): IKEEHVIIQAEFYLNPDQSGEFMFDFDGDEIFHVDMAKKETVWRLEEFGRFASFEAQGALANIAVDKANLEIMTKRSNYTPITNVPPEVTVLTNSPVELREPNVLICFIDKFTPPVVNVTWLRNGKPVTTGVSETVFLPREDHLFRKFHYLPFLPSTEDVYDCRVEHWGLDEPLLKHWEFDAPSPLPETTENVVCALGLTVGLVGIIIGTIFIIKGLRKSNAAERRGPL

A word on the IC50: it is the concentration needed to halve the response being measured. Regarding `CC(C)C[C@H](NC(=O)[C@H](CCCCN)NC(=O)[C@H](CC(C)C)NC(=O)[C@@H](NC(=O)CN(CC(N)=O)C(=O)[C@H](CCC(N)=O)NC(=O)[C@H](CCCCN)NC(=O)[C@@H](NC(=O)[C@H](Cc1ccc(O)cc1)NC(=O)[C@H](CCCCN)NC(=O)[C@@H]1CCCN1)C(C)C)[C@@H](C)O)C(=O)N[C@@H](C)C(=O)N[C@H](C(=O)O)[C@@H](C)O` [Pep7], the IC50 is 15 nM against HLA-DRB5*01:01; 200 nM on HLA-DRB1*11:01; 0.3 nM against HLA-DRB1*01:01 (IC50 DRB1*0101); 450 nM at HLA-DRB1*04:01; 16 nM at HLA-DRB1*07:01.
For the molecule `CC(C)C[C@H](NC(=O)[C@@H](NC(=O)[C@H](CC(N)=O)NC(=O)[C@H](CCC(N)=O)NC(=O)[C@H](CCCCN)NC(=O)[C@@H](NC(=O)[C@H](Cc1ccc(O)cc1)NC(=O)[C@H](CCCCN)NC(=O)[C@@H]1CCCN1)C(C)C)[C@@H](C)O)C(=O)N[C@@H](CCCCN)C(=O)N[C@@H](CC(C)C)C(=O)N(C)CC(=O)N[C@H](C(=O)O)[C@@H](C)O` [Pep12], the IC50 at HLA-DRB5*01:01 (setting [1]) is 3 nM; at HLA-DRB1*11:01 (setting [2]), 14 nM; on HLA-DRB1*01:01 (setting [3]), 0.3 nM; at HLA-DRB1*04:01 (setting [4]), 4 nM; at HLA-DRB1*07:01 (setting [5]), 10 nM.
In the same order, the values of `CC(C)C[C@H](NC(=O)[C@H](CCCCN)NC(=O)[C@H](CC(C)C)NC(=O)[C@@H](NC(=O)[C@H](CC(N)=O)NC(=O)[C@H](CCC(N)=O)NC(=O)[C@H](CCCCN)NC(=O)[C@@H](NC(=O)[C@H](Cc1ccc(O)cc1)NC(=O)[C@H](CCCCN)NC[C@@H]1CCCN1)C(C)C)[C@@H](C)O)C(=O)N[C@@H](C)C(=O)N[C@H](C(=O)O)[C@@H](C)O` [Rd1] (H-[X1]YVKQNTLKLAT-OH; N-terminus and C-terminus assumed) are 120 nM, 2500 nM, 2 nM, 25 nM and 140 nM.
